# Publication PMC8347595, “N-Skatyltryptamines—Dual 5-HT6R/D2R Ligands with Antipsychotic and Procognitive Potential” (Molecules, 2021)
# Read-outs that look alike come from different tables or passages of the source.
# Key:
# Male CD1 mice = assay: Spontaneous locomotor activity of mice; format: in vivo; details: i.p.; for Ambulation Scores ± SEM: 60 min, n = 5; for effect on spontaneous locomotor activity in words: all tested doses
# Method: Mice were placed separately into activity cages for an acclimatization period of 30 min, then they were injected i.p. with compound 15 (0.5, 1, and 3 mg/kg) or compound 18 (0.05, 0.1, 0.5, 1, and 3 mg/kg, respectively. After a further 30 min, they were injected with saline (10 mL/kg). From this point on, the ambulation scores were measured for 60 min. The data are presented as mean ± SEM, n = 5 mice per group. Data were analyzed with one-way ANOVA and Dunnett’s post-hoc. 15: F(3,16) = 1.225, p = 0.333; 18: F(5,24) = 0.791, p = 0.567.
# Animals. Male CD1 mice (Charles River, Germany) weighing 20–25 g at the time of arrival were used in behavioral experiments. Animals were kept under standard laboratory conditions (12:12 light: dark cycle, 22 ± 2 °C) with free access to food and water. Animal welfare has been regularly controlled by a veterinarian and animal welfare committee. After two weeks of acclimatization and handling, the experiments began. Experimental groups consisted of four to 10 animals, depending on the procedure. Drugs were administered intraperitoneally (i.p.) at a volume of 10 mL/kg. Experimental assessments were performed by an observer who was blinded to the treatment conditions. All procedures were conducted in accordance with the European Communities Council Directive of 22 September 2010 (2010/63/EU) and Polish legislation acts concerning animal experimentation and were approved by the II Local Ethics Committee by the Maj Institute of Pharmacology, Polish Academy of Sciences in Krakow (272/2019).
# Drugs. MK-801 was purchased from Tocris Bioscience, Bristol, UK. MK-801 was dissolved in 0.9% NaCl. Compounds 15 and 18 were dissolved in 0.9% NaCl. All compounds were administered intraperitoneally (i.p.) in a volume of 10 mL/kg. Vehicle-treated animals received appropriate solvents. Vehicle was administered to animals in any case when drug administration was omitted (e.g., control or MK-801-treated groups).
# The locomotor activity was recorded individually for each animal in the OPTO-M3 locomotor activity cages described above. Each cage was surrounded with an array of photocell beams. […] Mice were placed separately into activity cages for an acclimatization period of 30 min, then were injected i.p. with compound 15 (0.5, 1, 3 mg/kg) compound 18 (0.05, 0.1, 0.5, 1, 3 mg/kg. After a further 30 min, they were injected with saline (10 mL/kg). From this point on, the ambulation scores were measured for 60 min.
# 5-HT1AR = biological target: T1, 5-HT1AR (Homo sapiens, UniProt P08908); assay: Radioligand binding assay, [3H]-8-OH-DPAT displacement
# T1 sequence (P08908 1-422): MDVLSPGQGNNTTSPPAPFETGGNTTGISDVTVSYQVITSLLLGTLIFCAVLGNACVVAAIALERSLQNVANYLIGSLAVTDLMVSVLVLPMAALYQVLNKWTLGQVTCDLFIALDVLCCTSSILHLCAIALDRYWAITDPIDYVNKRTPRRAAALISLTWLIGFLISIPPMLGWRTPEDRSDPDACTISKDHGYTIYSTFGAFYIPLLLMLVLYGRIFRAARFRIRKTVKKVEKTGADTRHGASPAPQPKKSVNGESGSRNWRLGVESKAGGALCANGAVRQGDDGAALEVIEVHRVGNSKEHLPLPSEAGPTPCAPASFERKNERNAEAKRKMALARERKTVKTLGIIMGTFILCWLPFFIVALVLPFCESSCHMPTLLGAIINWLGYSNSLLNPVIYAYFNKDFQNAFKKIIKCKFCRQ
# 5-HT2AR = 5-HT2AR (Homo sapiens, UniProt P28223); assay: Radioligand binding assay, [3H]-ketanserin displacement; design: host or cells: CHO-K1; membrane preparation; details: Table 1
# CYP3A4 = biological target: T2, CYP3A4 (Homo sapiens, UniProt P08684); assay: CYP3A4 P450-Glo luminescent assay; format: in vitro ADME; details: compared to ketoconazole; 0.01 to 25 µM
# T2 construct: purchased Promega (Madison, WI, USA)
# Method: The experiments were provided using commercially available luminescent CYP3A4 P450-Glo™ and CYP2D6 P450-Glo™ tests purchased from Promega (Madison, WI, USA). The enzymatic reactions were conducted in polystyrene, flat-bottom Nunc™ MicroWell™ 96-well microplates (Thermo Scientific, Waltham, MA, USA). The assays were carried out according to the procedures provided by the manufacturer, as described previously. Compounds were tested in triplicate at the final concentrations in a range from 0.01 to 25 µM for both isoforms of CYP450. The references of CYP3A4 and CYP2D6 inhibitors (ketoconazole and quinidine, respectively) were tested in a range from 0.001 to 10 µM. Tested compounds were incubated in 100 mM Tris-HCl buffer separately with CYP3A4 and CYP2D6 membranes and the NADPH Regeneration System for 30 min at room temperature in triplicate. The bioluminescent signal was measured after the addition of the Luciferin Detection Reagent by using a microplate reader EnSpire PerkinElmer (Waltham, MA, USA). Both reagents (NADPH Regeneration System and Luciferin Detection Reagent) were purchased from Promega (Madison, WI, USA).
# in vitro = details: PAMPA, pH 7.4
# Sequence of 5-HT2AR (P28223 whole entry): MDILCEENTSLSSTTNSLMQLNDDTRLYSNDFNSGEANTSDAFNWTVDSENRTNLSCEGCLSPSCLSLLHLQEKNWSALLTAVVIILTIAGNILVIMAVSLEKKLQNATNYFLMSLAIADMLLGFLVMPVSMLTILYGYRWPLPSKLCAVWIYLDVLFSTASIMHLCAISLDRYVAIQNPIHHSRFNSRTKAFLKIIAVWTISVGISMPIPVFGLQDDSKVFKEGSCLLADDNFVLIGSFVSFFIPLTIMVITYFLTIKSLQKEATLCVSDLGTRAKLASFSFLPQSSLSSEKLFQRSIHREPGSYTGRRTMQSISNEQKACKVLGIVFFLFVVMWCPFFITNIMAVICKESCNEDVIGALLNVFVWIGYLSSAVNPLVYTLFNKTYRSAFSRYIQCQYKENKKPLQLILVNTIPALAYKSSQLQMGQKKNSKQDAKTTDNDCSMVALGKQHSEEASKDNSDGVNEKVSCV
# T2 sequence (P08684 whole entry): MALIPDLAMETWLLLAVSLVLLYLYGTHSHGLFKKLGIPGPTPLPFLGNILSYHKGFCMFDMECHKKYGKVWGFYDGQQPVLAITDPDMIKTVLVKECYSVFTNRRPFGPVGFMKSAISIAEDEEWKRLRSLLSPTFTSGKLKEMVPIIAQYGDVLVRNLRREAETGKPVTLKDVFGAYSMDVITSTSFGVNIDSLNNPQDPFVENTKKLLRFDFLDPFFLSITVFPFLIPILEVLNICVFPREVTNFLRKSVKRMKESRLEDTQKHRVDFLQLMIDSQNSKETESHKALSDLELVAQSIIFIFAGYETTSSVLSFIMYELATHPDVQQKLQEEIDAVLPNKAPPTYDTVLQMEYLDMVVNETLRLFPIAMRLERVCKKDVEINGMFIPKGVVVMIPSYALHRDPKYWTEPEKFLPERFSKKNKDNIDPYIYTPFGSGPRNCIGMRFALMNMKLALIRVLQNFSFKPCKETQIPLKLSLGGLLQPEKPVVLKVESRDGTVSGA
Compound,"PAMPA Pe ± SD (PAMPA permeability assay; 200 µM, PBS pH 7.4, 5 h, triplicate)","Papp at 5 h, 200 µM (PAMPA permeability assay; PAMPA, pH 7.4)",permeability in words (PAMPA permeability assay; compared to caffeine and norfloxacin),Ambulation Scores ± SEM (Male CD1 mice; 0.05 mg/kg),Ambulation Scores ± SEM (Male CD1 mice; 0.1 mg/kg),Ambulation Scores ± SEM (Male CD1 mice; 0.5 mg/kg),Ambulation Scores ± SEM (Male CD1 mice; 1 mg/kg),Ambulation Scores ± SEM (Male CD1 mice; 3 mg/kg),effect on spontaneous locomotor activity in words (Male CD1 mice),Ki (5-HT1AR),Ki (5-HT2AR; pKi 5-HT2A),effect on CYP3A4 activity (CYP3A4),"Papp at 5 h, 200 µM (in vitro)","Ki (5-HT1AR; pKi 5-HT1A, Table 1)",Ki (5-HT2AR; read-out: pKi 5-HT2A (converted)),"PAMPA Pe ± SD (5 h, 200 µM, pH 7.4)",permeability in words (PAMPA)
Brc1cccc2c(CNCCc3c[nH]c4ccccc34)c[nH]c12 [Compound 18],3.90 10^−6 cm/s,3.9 ± 0.56 ×10⁻⁶ cm/s,rather low Pe value but still higher than norfloxacin,113.6 ± 34.00,131.8 ± 19.50,116.7 ± 13.23,85.31 ± 15.86,87.79 ± 20.89,did not influence the spontaneous locomotor activity of mice,302 nM,3.98 µM,only slightly inhibited,,,,,
Brc1ccc2c(CNCCc3c[nH]c4ccccc34)c[nH]c2c1 [Compound 15],,,,,,134.9 ± 11.13,124.7 ± 21.75,91.8 ± 24.61,did not affect the locomotor activity of mice,,,only slightly inhibited,2.42 ± 0.92 ×10⁻⁶ cm/s,977 nM,4.07 µM,2.42 10^−6 cm/s,rather low Pe value but still higher than norfloxacin
